{"source": "ChEMBL document CHEMBL1201862", "about": "“PubChem BioAssay data set” (2004)", "key": {"[1]": {"target": "Dual specificity protein kinase CLK2 (Homo sapiens, UniProt P49760)", "sequence (P49760 whole entry)": "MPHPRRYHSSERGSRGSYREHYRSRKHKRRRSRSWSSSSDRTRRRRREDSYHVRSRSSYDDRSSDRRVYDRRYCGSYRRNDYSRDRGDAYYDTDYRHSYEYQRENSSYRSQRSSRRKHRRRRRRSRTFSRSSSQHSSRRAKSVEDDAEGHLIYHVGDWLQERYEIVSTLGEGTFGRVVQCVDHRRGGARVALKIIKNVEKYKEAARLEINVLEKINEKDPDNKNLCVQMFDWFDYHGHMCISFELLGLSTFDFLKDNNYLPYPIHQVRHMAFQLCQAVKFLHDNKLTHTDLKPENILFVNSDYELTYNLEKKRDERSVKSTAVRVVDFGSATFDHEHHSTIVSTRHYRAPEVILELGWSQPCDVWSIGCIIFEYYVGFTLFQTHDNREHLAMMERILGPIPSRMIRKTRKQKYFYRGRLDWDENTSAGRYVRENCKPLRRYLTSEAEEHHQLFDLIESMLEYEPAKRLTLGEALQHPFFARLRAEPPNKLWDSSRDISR", "format": "functional"}, "[2]": {"target": "Tyrosine-protein kinase SYK (Homo sapiens, UniProt P43405)", "format": "functional"}, "[3]": {"target": "Cell division cycle 7-related protein kinase (Homo sapiens, UniProt O00311)", "sequence (O00311 whole entry)": "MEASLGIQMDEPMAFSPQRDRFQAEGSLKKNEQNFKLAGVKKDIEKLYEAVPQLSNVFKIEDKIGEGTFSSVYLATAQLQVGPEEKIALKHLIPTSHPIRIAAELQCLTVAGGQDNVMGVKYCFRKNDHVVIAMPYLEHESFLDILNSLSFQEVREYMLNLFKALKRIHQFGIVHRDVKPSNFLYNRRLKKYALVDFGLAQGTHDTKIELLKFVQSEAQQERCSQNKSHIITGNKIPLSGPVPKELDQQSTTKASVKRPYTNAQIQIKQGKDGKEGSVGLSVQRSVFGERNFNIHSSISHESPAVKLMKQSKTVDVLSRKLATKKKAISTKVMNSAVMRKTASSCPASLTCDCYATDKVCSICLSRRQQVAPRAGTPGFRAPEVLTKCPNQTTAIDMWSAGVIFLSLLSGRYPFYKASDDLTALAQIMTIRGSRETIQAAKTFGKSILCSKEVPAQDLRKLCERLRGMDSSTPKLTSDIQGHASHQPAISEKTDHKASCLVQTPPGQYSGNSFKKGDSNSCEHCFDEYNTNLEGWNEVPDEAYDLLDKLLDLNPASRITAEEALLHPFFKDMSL", "format": "functional"}, "[4]": {"target": "Casein kinase I isoform alpha (Homo sapiens, UniProt P48729)", "sequence (P48729 whole entry, canonical isoform)": "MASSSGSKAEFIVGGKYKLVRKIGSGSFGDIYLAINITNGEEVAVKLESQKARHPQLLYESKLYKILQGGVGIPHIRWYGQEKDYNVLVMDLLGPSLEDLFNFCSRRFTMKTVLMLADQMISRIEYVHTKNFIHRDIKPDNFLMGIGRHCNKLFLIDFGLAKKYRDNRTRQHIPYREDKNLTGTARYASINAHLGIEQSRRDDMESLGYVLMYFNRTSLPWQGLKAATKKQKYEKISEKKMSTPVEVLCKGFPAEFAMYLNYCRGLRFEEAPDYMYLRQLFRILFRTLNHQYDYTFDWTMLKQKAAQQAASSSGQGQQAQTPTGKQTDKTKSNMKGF", "format": "functional"}, "[5]": {"target": "Receptor tyrosine-protein kinase erbB-2 (Homo sapiens, UniProt P04626)", "sequence (P04626 whole entry)": "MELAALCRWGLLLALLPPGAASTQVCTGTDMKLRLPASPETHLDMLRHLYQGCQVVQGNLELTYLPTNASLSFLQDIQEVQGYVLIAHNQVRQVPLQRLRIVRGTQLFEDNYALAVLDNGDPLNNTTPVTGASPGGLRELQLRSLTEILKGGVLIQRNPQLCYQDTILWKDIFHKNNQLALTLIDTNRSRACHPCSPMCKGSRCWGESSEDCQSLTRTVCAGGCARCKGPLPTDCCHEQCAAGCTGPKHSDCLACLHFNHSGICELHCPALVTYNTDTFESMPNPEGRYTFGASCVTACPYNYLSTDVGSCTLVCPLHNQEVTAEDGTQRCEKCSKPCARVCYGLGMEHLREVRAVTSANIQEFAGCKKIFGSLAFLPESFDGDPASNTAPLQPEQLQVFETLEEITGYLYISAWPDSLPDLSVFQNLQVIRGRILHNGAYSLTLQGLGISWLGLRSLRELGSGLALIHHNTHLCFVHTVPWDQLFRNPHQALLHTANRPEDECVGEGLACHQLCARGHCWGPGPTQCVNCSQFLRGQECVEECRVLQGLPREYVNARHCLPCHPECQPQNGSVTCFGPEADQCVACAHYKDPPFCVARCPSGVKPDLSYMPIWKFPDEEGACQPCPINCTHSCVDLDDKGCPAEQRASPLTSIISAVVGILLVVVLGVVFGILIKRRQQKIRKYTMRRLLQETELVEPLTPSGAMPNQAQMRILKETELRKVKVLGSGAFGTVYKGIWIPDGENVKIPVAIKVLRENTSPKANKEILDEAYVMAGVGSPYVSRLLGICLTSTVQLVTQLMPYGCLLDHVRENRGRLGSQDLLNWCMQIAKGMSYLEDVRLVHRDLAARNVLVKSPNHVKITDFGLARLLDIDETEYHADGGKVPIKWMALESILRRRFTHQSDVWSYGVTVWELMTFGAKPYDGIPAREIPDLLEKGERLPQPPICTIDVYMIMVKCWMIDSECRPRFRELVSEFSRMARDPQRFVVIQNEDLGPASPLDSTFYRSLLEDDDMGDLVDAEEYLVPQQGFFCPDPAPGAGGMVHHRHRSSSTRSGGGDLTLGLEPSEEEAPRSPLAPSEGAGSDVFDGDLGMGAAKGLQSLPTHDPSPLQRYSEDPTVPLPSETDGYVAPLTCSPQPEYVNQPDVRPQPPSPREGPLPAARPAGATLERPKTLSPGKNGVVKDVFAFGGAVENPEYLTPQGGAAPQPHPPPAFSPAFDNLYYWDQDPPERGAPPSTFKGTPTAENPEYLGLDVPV", "experiment": "Navigating the Kinome. Panel member name: ERBB2", "format": "functional"}, "[6]": {"target": "Tyrosine-protein kinase ABL1 (Homo sapiens, UniProt P00519)", "sequence (P00519 whole entry)": "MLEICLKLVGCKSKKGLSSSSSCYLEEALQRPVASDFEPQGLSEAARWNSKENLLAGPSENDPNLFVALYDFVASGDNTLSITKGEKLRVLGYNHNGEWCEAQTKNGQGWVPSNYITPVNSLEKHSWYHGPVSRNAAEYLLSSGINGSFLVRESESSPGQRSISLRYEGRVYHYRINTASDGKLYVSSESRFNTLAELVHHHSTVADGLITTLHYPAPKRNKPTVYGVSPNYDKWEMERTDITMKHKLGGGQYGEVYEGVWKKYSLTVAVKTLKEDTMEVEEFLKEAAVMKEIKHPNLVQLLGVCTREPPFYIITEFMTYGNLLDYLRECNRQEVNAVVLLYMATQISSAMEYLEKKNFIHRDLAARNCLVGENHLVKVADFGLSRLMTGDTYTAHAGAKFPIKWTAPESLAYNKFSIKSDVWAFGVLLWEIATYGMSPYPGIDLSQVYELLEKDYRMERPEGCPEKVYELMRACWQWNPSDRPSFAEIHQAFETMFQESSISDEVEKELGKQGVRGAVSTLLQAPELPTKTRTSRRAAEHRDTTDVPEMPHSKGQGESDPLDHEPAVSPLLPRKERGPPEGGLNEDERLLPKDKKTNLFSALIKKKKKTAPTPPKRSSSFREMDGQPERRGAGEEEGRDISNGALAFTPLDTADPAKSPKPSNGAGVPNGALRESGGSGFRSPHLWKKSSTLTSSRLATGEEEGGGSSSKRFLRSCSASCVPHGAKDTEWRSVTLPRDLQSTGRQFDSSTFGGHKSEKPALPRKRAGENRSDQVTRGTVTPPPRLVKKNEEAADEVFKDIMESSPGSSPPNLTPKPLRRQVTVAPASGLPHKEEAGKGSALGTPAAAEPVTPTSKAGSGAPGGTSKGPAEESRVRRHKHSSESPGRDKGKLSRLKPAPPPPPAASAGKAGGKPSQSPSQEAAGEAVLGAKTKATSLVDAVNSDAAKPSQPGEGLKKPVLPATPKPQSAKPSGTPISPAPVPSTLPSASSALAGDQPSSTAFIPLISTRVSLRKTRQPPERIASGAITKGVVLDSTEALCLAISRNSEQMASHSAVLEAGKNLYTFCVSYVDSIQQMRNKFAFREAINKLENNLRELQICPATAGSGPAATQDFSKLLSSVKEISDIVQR", "format": "functional"}, "[7]": {"target": "Heat shock protein HSP 90-alpha (Homo sapiens, UniProt P07900)", "experiment": "Luminescence-based dose response biochemical high throughput screening assay for inhibitors of the Heat Shock Protein 90 (HSP90). [Related pubchem assays: 1831 (Summary AID.), 1846 (Confirmation screen.), 1789 (Primary screen.)]"}, "[8]": {"target": "T1, 1-phosphatidylinositol 4,5-bisphosphate phosphodiesterase gamma-1 (Homo sapiens, UniProt P19174)", "T1 sequence (P19174 whole entry)": "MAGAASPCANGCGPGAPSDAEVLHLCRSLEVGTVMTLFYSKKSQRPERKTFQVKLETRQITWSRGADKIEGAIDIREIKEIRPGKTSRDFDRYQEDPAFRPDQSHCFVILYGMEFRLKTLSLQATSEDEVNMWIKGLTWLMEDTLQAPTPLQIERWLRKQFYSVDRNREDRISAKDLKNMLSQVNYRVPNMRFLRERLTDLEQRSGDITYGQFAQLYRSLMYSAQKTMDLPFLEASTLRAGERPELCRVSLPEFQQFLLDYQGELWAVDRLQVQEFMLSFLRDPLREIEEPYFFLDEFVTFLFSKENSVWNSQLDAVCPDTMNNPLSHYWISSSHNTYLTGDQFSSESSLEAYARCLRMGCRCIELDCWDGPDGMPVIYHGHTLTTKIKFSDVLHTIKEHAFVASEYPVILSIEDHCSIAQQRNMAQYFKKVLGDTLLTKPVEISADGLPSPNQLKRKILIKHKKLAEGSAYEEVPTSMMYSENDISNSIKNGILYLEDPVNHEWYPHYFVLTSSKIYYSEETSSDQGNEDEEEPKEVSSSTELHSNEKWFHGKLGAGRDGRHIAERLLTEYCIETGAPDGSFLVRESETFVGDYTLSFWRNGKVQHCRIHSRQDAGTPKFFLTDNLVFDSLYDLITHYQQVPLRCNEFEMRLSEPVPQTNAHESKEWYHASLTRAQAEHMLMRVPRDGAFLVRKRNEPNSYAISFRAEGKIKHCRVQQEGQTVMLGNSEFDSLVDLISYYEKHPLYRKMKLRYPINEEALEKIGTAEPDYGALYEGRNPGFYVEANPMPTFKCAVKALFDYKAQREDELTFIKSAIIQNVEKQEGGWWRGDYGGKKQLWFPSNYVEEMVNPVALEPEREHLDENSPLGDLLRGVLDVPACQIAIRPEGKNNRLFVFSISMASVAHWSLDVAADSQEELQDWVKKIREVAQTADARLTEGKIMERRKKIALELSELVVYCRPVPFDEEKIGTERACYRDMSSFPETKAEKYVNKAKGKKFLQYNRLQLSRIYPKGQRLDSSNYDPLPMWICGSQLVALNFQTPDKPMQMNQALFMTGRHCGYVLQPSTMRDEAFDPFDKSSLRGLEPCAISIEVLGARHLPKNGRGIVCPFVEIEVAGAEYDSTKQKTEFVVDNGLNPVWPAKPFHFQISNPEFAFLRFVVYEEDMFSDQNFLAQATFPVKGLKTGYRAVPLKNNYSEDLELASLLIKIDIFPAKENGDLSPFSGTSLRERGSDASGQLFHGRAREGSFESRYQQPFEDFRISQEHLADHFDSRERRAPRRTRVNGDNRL", "experiment": "Counterscreen for inhibitors of phospholipase C isozymes (PLC-B3): Fluorescence-based biochemical high throughput dose response assay to identify inhibitors of phospholipase C isozymes (PLC-gamma1)."}, "[9]": {"target": "T2, 1-phosphatidylinositol 4,5-bisphosphate phosphodiesterase beta-3 (Homo sapiens, UniProt Q01970)", "T2 sequence (Q01970 whole entry)": "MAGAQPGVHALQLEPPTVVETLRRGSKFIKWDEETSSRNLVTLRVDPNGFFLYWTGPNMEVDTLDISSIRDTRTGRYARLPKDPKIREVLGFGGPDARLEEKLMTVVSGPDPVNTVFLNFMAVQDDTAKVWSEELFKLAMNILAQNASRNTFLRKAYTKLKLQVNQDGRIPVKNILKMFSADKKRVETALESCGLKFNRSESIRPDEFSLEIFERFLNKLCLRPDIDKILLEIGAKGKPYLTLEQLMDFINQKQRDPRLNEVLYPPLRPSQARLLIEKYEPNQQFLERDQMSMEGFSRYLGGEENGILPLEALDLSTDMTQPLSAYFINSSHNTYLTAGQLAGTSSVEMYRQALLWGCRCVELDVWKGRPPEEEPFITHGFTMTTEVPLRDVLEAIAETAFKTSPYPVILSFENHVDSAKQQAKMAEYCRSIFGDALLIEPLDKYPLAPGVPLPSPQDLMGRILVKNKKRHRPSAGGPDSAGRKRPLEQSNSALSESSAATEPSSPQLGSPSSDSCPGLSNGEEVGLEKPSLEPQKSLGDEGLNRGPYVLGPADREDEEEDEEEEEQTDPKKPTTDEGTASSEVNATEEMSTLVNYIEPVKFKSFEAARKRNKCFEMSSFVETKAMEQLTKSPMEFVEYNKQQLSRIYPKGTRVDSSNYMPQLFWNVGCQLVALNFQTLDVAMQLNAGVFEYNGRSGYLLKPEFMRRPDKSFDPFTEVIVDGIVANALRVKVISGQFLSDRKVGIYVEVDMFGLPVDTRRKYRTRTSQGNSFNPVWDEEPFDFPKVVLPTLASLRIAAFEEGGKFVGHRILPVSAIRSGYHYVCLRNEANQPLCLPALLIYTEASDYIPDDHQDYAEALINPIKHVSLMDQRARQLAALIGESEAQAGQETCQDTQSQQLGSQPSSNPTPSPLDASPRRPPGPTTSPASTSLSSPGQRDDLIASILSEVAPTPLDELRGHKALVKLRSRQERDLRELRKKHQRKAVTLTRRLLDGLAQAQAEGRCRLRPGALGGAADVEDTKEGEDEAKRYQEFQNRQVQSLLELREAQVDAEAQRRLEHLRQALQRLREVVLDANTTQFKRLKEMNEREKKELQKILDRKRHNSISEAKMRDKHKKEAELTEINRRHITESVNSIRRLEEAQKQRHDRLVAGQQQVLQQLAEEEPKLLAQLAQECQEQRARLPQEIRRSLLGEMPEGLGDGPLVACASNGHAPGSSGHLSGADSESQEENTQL", "experiment": "Fluorescence-based biochemical high throughput dose response assay to identify inhibitors of phospholipase C isozymes (PLC-B3)."}}, "note": "Activity calls are given as the source filed them.", "data": [{"compound": "Clc1cc(NC2CCCCC2)nc(-c2c[nH]c3ncccc23)n1", "values": [{"measurement": "Ki", "setting": "[1]", "result": "> 3160 nM (inactive)"}, {"measurement": "Ki", "setting": "[2]", "result": "316 nM (active)"}, {"measurement": "Ki", "setting": "[3]", "result": "2 nM (active)"}, {"measurement": "Ki", "setting": "[4]", "result": "> 5010 nM (inactive)"}, {"measurement": "Ki", "setting": "[5]", "result": "> 1580 nM (inactive)"}, {"measurement": "Ki", "setting": "[6]", "result": "> 631 nM (inactive)"}]}, {"compound": "Cc1ccc(/C=C2/C(=O)c3ccc(C(=O)O)cc3C2=O)o1", "values": [{"measurement": "IC50", "setting": "[7]", "result": "1650 nM (active)"}, {"measurement": "IC50", "setting": "[8]", "result": "> 122000 nM (inactive)"}, {"measurement": "IC50", "setting": "[9]", "result": "> 122000 nM (inactive)"}]}]}
